Data from patent publication US9046782B2, “Resist composition for negative tone development and pattern forming method using the same” (FUJIFILM Corporation, priority 2007, dated 2015).

Assay: Vapor pressure of solvents for negative tone development and rinsing
Conditions: value at 20° C.

Vapor Pressure [kPa]	Structure (SMILES)
0.4	CC(C)CCO [3-Methyl-1-butanol]
0.015	CCCCCCCO [1-Heptanol]
8.33	CCCOCCC [Dipropyl ether]
2.1	CC(=O)CC(C)C [Methyl isobutyl ketone]
0.36	CCCCC(C)=O [2-Hexanone]
0.04	CCCCCCCCCCCC [Dodecane]
0.13	CCCCCCO [1-Hexanol]
0.53	CC(=O)OCCC(C)C [Isoamyl acetate]
0.133	CCCCCC(C)O (stereo not drawn) [2-Heptanol]
0.17	CCCCCCCCCC [Decane]

Structure (SMILES)	Vapor Pressure [kPa]
CCCCOC(C)=O [Butyl acetate]	1.2
CCC(C)=O [Methyl ethyl ketone]	10.5
